Publication PMC13453949 (Journal of Advanced Research, 2025)
Converted amounts (≈) assume the structure as drawn. “Also recorded” adds a separate entry of the source. Read-outs that look alike come from different tables or passages of the source.

Experiments:
C. albicans [1] = assay: microbe, parasite or virus in culture; assay type: cell-based, Candida albicans; conditions: for MIC: Candida albicans, read-out: Minimum inhibitory concentration (MIC); for Fungal recovery after treatment: after 36 h of treatment
C. albicans [2] = assay type: cell-based, Candida albicans; conditions: α-hederin 32 μg/mL; vs untreated control (CK)
C. albicans biofilm = assay: Biofilm formation, total biofilm biomass by crystal violet staining; assay type: cell-based; conditions: Candida albicans, 24 h, read-out: Inhibition of early biofilm formation
[3] = test system: C. albicans mature biofilm; assay: Mature biofilm, metabolic activity by XTT reduction; assay type: cell-based; conditions: Candida albicans, 24 h, read-out: Inhibition rate of mature biofilms
[4] = test system: C. albicans hyphal formation; assay type: cell-based, Candida albicans; conditions: RPMI-1640 + 10 % FBS, 24 h
[5] = test system: ergosterol content in C. albicans; assay: Ergosterol content determination; assay type: cell-based, Candida albicans; conditions: 16 μL/mL, compared to untreated control (CK)
C. albicans [6] = assay: Checkerboard dilution, fractional inhibitory concentration index; assay type: cell-based, Candida albicans
C. albicans [7] = assay: Murine oral candidiasis model; assay type: in vivo, BALB/c mice; conditions: for Hemoglobin (HGB) level / Platelet (PLT) counts / White blood cell count (WBC): relative to Can group
293 T cells = conditions: 24 h; for Cell survival rate: 128 μg/mL (highest tested)
Raw264.7 cells = conditions: 24 h; for Cell survival rate: 128 μg/mL (highest tested)
[8] = test system: KB (human oral epidermoid carcinoma cells); conditions: 24 h; for Cell survival rate: 128 μg/mL (highest tested)
C. albicans [9] = assay: Antifungal activity test of the 17 candidate compounds against C. albicans; assay type: cell-based, Candida albicans; conditions: tested at 12 h, 24 h and 36 h
[10] = test system: C. albicans cell surface hydrophobicity; assay type: cell-based, Candida albicans; conditions: 128 μg/mL
[11] = threshold concentration 1024 μg/mL

## OC(Cn1cncn1)(Cn1cncn1)c1ccc(F)cc1F [Fluconazole, reference compound]
C. albicans [1]; 128 μg/mL, after 24 h
  Fungal growth at highest concentration: persistent fungal growth
C. albicans [1]
  MIC: > 128 µg/mL
  Fungal recovery after treatment: regrowth
C. albicans [2]
  Internal ultrastructure (TEM): no comparable ultrastructural damage
C. albicans biofilm
  inhibition at 256 µg/mL: 57%
[3]
  inhibition at 128 µg/mL: 17%
[4]; 256 μg/mL
  Hyphal formation: failed to achieve complete suppression
[4]
  Concentration reducing hyphal formation: > 32 µg/mL
[5]
  Reduction of ergosterol content: 45%
C. albicans [6]
  Concentration in the combination showing additive effect: 1 µg/mL
C. albicans [7]; 128 μg/mL
  Hemoglobin (HGB) level: restored
  Platelet (PLT) counts: normalized
  White blood cell count (WBC): restored
C. albicans [7]; mouse, in vivo
  Body weight change: rebound in body weight
293 T cells
  Cell survival rate: above 80%
Raw264.7 cells
  Cell survival rate: above 80%
[8]
  Cell survival rate: above 80%

## CC(C)=CCC[C@](C)(O[C@@H]1O[C@H](CO[C@@H]2O[C@@H](CO)[C@H](O)[C@H]2O[C@@H]2OC[C@@H](O)[C@H](O)[C@H]2O)[C@@H](O)[C@H](O)[C@H]1O)[C@H]1CC[C@]2(C)[C@@H]1[C@H](O)C[C@@H]1[C@@]3(C)CC[C@H](O[C@@H]4O[C@H](CO)[C@@H](O)[C@H](O)[C@H]4O[C@@H]4O[C@H](CO)[C@@H](O)[C@H](O)[C@H]4O)C(C)(C)[C@@H]3CC[C@]12C [Ginsenoside Ra2]
C. albicans [9]; [11]
  Anti − C. albicans activity: >1024 µg/mL

## C[C@]12CCC[C@@]3(COC1=O)[C@@H]1CC[C@@H]4C[C@@]1(CC[C@@H]32)C[C@@]4(C)O [Hypodiolide A]
C. albicans [9]; [11]
  Anti − C. albicans activity: >1024 µg/mL

## C=C(C)C(O)COc1c2occc2cc2ccc(=O)oc12 (centres unmarked) [Isogosferol]
C. albicans [9]; [11]
  Anti − C. albicans activity: >1024 µg/mL

## COc1cc2ccc(=O)oc2cc1O [Scopoletol]
C. albicans [9]; [11]
  Anti − C. albicans activity: >1024 µg/mL

## Oc1ccc2ccccc2c1N=Nc1ccc(N=Nc2ccccc2)cc1 [Sudam Ⅲ]
C. albicans [9]; [11]
  Anti − C. albicans activity: >1024 µg/mL

## C[C@@H]1O[C@@H](O[C@H]2[C@H](O[C@H]3CC[C@@]4(C)[C@@H](CC[C@]5(C)[C@@H]4CC=C4[C@@H]6CC(C)(C)CC[C@]6(C(=O)O)CC[C@]45C)[C@]3(C)CO)OC[C@H](O)[C@@H]2O)[C@H](O)[C@H](O)[C@H]1O [α-Hederin]
C. albicans [9]; [11]
  Anti − C. albicans activity: below 128 μg/mL
C. albicans [1]; 32 μg/mL
  C. albicans growth: completely inhibited
C. albicans [1]
  MIC: 32 µg/mL (≈ 42.6 µM)
  Fungal recovery after treatment: no fungal recovery observed
C. albicans [1]; at concentrations above 8 μg/mL within 24 h
  Growth inhibition of C. albicans: 50%
C. albicans [2]
  Internal ultrastructure (TEM): severe cytoplasmic content loss and vacuolization, thinning and irregularity of cell walls/membranes and membrane discontinuities
C. albicans biofilm
  inhibition at 32 µg/mL: 55%
  inhibition at 256 µg/mL: 75%
[3]
  inhibition at 128 µg/mL: 20%
[4]; 128 μg/mL
  Hyphal formation: partial inhibition
[4]; 256 μg/mL
  Hyphal formation: completely inhibit
[10]
  Reduction of cell surface hydrophobicity (CSH): 85%
[5]
  Reduction of ergosterol content: 90%
C. albicans [6]; checkerboard, fluconazole plus α-hederin
  Concentration in the combination showing additive effect: 16 µg/mL
C. albicans [7]; 32 μg/mL
  Hemoglobin (HGB) level: restored
  Platelet (PLT) counts: normalized
  White blood cell count (WBC): restored
C. albicans [7]; 128 μg/mL in drinking water, 5 days (128Hed)
  C. albicans colony count on tongue: no colonies were detected
C. albicans [7]; 128 μg/mL
  Hemoglobin (HGB) level: restored
  Platelet (PLT) counts: normalized
  White blood cell count (WBC): restored
C. albicans [7]; mouse, in vivo
  Body weight change: rebound in body weight; also recorded: slowest initial weight loss, followed by a consistent increase
  Fungal colonization of tongue (PAS staining): markedly reduced fungal colonization
C. albicans [7]; α-hederin-treated group, dose not stated
  Fungal load on tongue (colony counts): significant decrease in fungal load
293 T cells
  Cell survival rate: above 80%
Raw264.7 cells
  Cell survival rate: above 80%
[8]
  Cell survival rate: above 80%

## Elemicin
C. albicans [9]
  Anti − C. albicans activity: <128 μL/mL
C. albicans [9]; [11]
  Anti − C. albicans activity: below 128 μg/mL
C. albicans [1]; C. albicans CMCC(F)98001, YEPD, 37 °C, 24 h and 36 h
  Minimum inhibitory concentration (MIC): 16 μL/mL
C. albicans [1]; at concentrations exceeding 0.5 μL/mL
  Inhibition of C. albicans growth: 50 % −70
293 T cells
  Concentration with significant toxicity: higher than 8 μL/mL
Raw264.7 cells
  Concentration with significant toxicity: higher than 8 μL/mL
[8]
  Concentration with significant toxicity: higher than 8 μL/mL

## Evodiamine
C. albicans [9]; [11]
  Anti − C. albicans activity: >1024 µg/mL

## Strictosamide
C. albicans [9]; [11]
  Anti − C. albicans activity: >1024 µg/mL

## Triptofordin
C. albicans [9]; [11]
  Anti − C. albicans activity: >1024 µg/mL
